Results taken from ChEMBL document CHEMBL1145669, “Antihepatotoxic principles of Atractylodes rhizomes” (1983).

Legend:
Hepatocyte [1] = assay: Antihepatotoxic activity against carbon tetrachloride-induced cytotoxicity in rat hepatocytes assessed as GPT level at 1 mg/mL relative to control; assay type: functional
Hepatocyte [2] = assay: Antihepatotoxic activity against galactosamine-induced cytotoxicity in rat hepatocytes assessed as GPT level at 1 mg/mL relative to control; assay type: functional
Hepatocyte [3] = assay: Antihepatotoxic activity against carbon tetrachloride-induced cytotoxicity in rat hepatocytes assessed as GPT level at 0.01 mg/mL relative to control; assay type: functional
Hepatocyte [4] = assay: Antihepatotoxic activity against galactosamine-induced cytotoxicity in rat hepatocytes assessed as GPT level at 0.1 mg/mL relative to control; assay type: functional
Hepatocyte [5] = assay: Antihepatotoxic activity against carbon tetrachloride-induced cytotoxicity in rat hepatocytes assessed as GPT level at 0.1 mg/mL relative to control; assay type: functional
[6] = biological target: T1, Alanine aminotransferase 1 (Rattus norvegicus) (UniProt P25409); assay: Effect on GPT in rat hepatocytes relative to control; assay type: cell-based; details: Hepatocyte
T1 sequence (whole entry): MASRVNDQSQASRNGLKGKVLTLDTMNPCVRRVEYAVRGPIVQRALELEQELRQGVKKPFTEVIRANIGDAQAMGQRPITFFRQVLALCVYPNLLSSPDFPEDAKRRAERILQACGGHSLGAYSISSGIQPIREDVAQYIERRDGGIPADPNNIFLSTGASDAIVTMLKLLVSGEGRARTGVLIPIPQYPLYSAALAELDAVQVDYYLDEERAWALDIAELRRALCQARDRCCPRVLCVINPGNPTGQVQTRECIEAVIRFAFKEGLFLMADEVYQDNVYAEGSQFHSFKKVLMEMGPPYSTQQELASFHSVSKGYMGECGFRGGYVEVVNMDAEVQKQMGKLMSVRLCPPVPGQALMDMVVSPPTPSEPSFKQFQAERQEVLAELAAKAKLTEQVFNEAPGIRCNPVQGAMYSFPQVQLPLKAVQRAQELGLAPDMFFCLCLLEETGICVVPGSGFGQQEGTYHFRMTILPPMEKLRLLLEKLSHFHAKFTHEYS

Hepatocyte [7] = assay: Antihepatotoxic activity against galactosamine-induced cytotoxicity in rat hepatocytes assessed as GPT level at 0.01 mg/mL relative to control; assay type: functional

C[C@H]1CCC[C@]2(C)CC(=O)[C@@H](C(C)(C)O)C[C@@H]12
Activity (Hepatocyte [1]): 71% | Activity (Hepatocyte [2]): 81%

C[C@H]1CCC[C@]2(C)CC(O)[C@@H](C(C)(C)O)C[C@@H]12 (stereo partly drawn)
Activity (Hepatocyte [1]): 44% | Activity (Hepatocyte [2]): 82%

C=C1CCC[C@]2(C)CC[C@@H](C(C)(C)O)C[C@@H]12 [BETA-EUDESMOL]
Activity (Hepatocyte [3]): 83% | Activity (Hepatocyte [4]): 94% | Activity (Hepatocyte [5]): 70% | Activity (Hepatocyte [1]): 53% | Activity [6]: 106% | Activity (Hepatocyte [7]): 104% | Activity (Hepatocyte [2]): 79%

CC1CCC[C@H](C)[C@@]12CC[C@@H](C(C)(C)O)C2 (stereo partly drawn) [DIHYDROHINESOL]
Activity (Hepatocyte [1]): 67% | Activity (Hepatocyte [2]): 35%

C[C@H]1CCC[C@]2(C)CC[C@@H](C(C)(C)O)C[C@H]12 [DIHYDROEUDESMOL]
Activity (Hepatocyte [1]): 58% | Activity (Hepatocyte [2]): 83%

C=C1CCC[C@]2(C)C[C@@H]3OC(=O)C(C)=C3C[C@@H]12 [ATRACTYLENOLIDE II]
Activity (Hepatocyte [1]): 74% | Activity (Hepatocyte [2]): 94%

C=C1CCC[C@]2(C)Cc3occ(C)c3C[C@@H]12 [ATRACTYLON]
Activity (Hepatocyte [3]): 67% | Activity (Hepatocyte [4]): 92% | Activity (Hepatocyte [5]): 53% | Activity (Hepatocyte [1]): 25% | Activity [6]: 106% | Activity (Hepatocyte [7]): 99% | Activity (Hepatocyte [2]): 84%

CC1=CCC[C@H](C)[C@@]12CC[C@@H](C(C)(C)O)C2 [HINESOL]
Activity (Hepatocyte [3]): 79% | Activity (Hepatocyte [4]): 99% | Activity (Hepatocyte [5]): 62% | Activity (Hepatocyte [1]): 31% | Activity [6]: 105% | Activity (Hepatocyte [7]): 101% | Activity (Hepatocyte [2]): 73%

OCc1ccco1 [FURFURYL ALCOHOL]
Activity (Hepatocyte [3]): 102% | Activity (Hepatocyte [5]): 101% | Activity (Hepatocyte [1]): 90%

C=C1CCC[C@]2(C)C=C3OC(=O)C(C)=C3C[C@@H]12 [ATRACTYLENOLIDE I]
Activity (Hepatocyte [1]): 68% | Activity (Hepatocyte [2]): 107%

C=C1CCC[C@]2(C)C[C@]3(O)OC(=O)C(C)=C3C[C@@H]12 [ATRACTYLENOLIDE III]
Activity (Hepatocyte [1]): 103% | Activity (Hepatocyte [2]): 97%
